Like-named read-outs stand apart in the source and are kept apart here.
What was measured:
physchem = assay type: physicochemical; conditions: reversed-phase C18, acidic range pH 3.4 (formic acid), 55° C.; for chromatographic logP: read-out: log P
Experimental: 1) Description of Method for Determination of the log P Values (Formic Acid Method)
Eluents for determination in the acidic range (pH 3.4):
Eluent A: acetonitrile+1 ml of formic acid/liter. Eluent B: water+0.9 ml of formic acid/liter.
The lambda max values were determined in the maxima of the chromatographic signals using the UV spectra from 200 nm to 400 nm.

Globodera rostochiensis = Globodera rostochiensis test (soil application); assay type: in vivo; conditions: application rate 2 ppm in soil; potato seedling; after six weeks
Experimental: Globodera rostochiensis—Test (Soil Application)
(§1) Solvent: 4 parts by weight acetone
(§2) Emulsifier: 1 part by weight alkylaryl polyglycol ether
To produce a suitable preparation of active compound, 1 part by weight of active compound is mixed with solvent and emulsifier at the ratio 4:1 and is diluted with water to the desired concentration. This compound composition is mixed with soil. The stated concentration refers to the amount of compound per unit of volume soil (mg/1=ppm).
450 ml of this compound composition is mixed with 50 ml of soil infected with Globodera rostochiensis (20.000 nematodes/100 ml), filled in 500 ml pots and a potato seedling is planted.
After six weeks the average number of cysts in the potato roots per pot are determined and efficieny is calculated by using Abbott's formula:
(§3) C=untreated control plants

Pratylenchus penetrans = Pratylenchus penetrans test (soil application); assay type: in vivo; conditions: corn (Zea mays), after 2 weeks
Experimental: Pratylenchus penetrans—Test (Soil Application)
as §1, §2
(§4) To produce a suitable preparation of active compound, 1 part by weight of active compound is mixed with solvent and emulsifier at the ratio 4:1 and is diluted with water to the desired concentration.
This compound solution is mixed with 500 ml soil infected with Pratylenchus penetrans (800 nematodes per 100 ml). The stated concentration refers to the amount of compound per unit of volume soil (mg/1=ppm). The treated soil is filled into 500 ml pots and 3 corn seeds (Zea mays) are sown.
(§5) After 2 weeks the number of nematodes in the corn roots is determined by means of maceration. The roots are cleaned with water, cut into about 1 cm pieces and minced with water in a mixer for 10-15 seconds. The pieces are poured over a 0.2 mm-nematode sieve, rinsed with 400 ml water and the flow rate is collected. After 6 hours the supernatant is aspirated and the number of nematodes is determined microscopically with a counting chamber.
(§6) The average number of nematodes per pot is determined and efficieny is calculated by using Abbott's formula:
as §3

Meloidogyne incognita = Meloidogyne incognita in tomato test (MELGIN soil application); assay type: in vivo; conditions: application rate 2 ppm in soil; tomato seedling (Solanum lycopersicum); after five weeks
Experimental: Meloidogyne incognita in Tomato—Test (MELGIN Soil Application)
as §1, §2
To produce a suitable preparation of active compound, 1 part by weight of active compound is mixed with solvent and emulsifier at the ratio 4:1 and is diluted with water to the desired concentration. The stated concentration refers to the amount of compound per unit of volume soil (mg/1=ppm).
This compound composition is mixed with 500 ml of soil and 4 ml of a nematode suspension (1000 differenciated eggs and larvae of Meloidogyne incognita/ml). The stated concentration refers to the amount of compound per unit of volume soil (mg/1=ppm). The treated soil is filled in 500 ml pots and a tomato seedling (Solanum lycopersicum) is planted.
After five weeks the average number of galls in the tomato roots per pot are determined and efficieny is calculated by using Abbott's formula:
as §3

Pratylenchus zeae = Pratylenchus zeae test (PRATZE soil application); assay type: in vivo; conditions: application rate 2 ppm in soil; corn (Zea mays); after 2 weeks
Experimental: Pratylenchus zeae—Test (PRATZE Soil Application)
as §1, §2, §4
This compound solution is mixed with 500 ml soil infected with Pratylenchus zeae (800 nematodes per 100 ml). The stated concentration refers to the amount of compound per unit of volume soil (mg/1=ppm). The treated soil is filled into 500 ml pots and 3 corn seeds (Zea mays) are sown.
as §5, §6, §3

Radopholus similis = Radopholus similis test (soil application); assay type: in vivo; conditions: application rate 2 ppm in soil; banana seedling; after 2 weeks
Experimental: Radopholus similis—Test (Soil Application)
as §1, §2, §4
This compound solution is mixed with soil. The stated concentration refers to the amount of compound per unit of volume soil (mg/1=ppm). The treated soil is filled into 250 ml pots and a banana seedling is planted. Afterwards 2.5 ml of a nematode suspension (500 Radopholus similis/ml) are applied.
After 2 weeks the number of nematodes in the banana roots is determined by means of maceration. The roots are cut off, cleaned with water and after adding 25-40 ml 0.01% lactic acid—acid fuchsin solution they are boiled in a microwave. On the next day the roots are rinsed over a 0.025 mm-nematode sieve, roughly minced and macerated with 15-20 ml water in an Ultra Turrax. After filling up with water to 45 ml, the number of nematodes in the supernatant is determined microscopically with a counting chamber.
as §6, §3

Compound | log P (physchem; HPLC) | activity (efficiency by Abbott's formula, number of cysts in potato roots) (Globodera rostochiensis) [%] | also measured
CCN(C(=O)c1ccccc1C(F)(F)F)c1ccn(-c2ncc(F)cc2F)n1 [Compound I-1-468, N-[1-(3,5-difluoropyridin-2-yl)-1H-pyrazol-3-yl]-N-ethyl-2-(trifluoromethyl)benzamide] |  | 100 | chromatographic logP (physchem; reversed-phase C18 HPLC column): 3.23
O=C(Nc1cnn(-c2c(F)cccc2F)n1)c1ccccc1C(F)(F)F [Compound I-2-35, N-[2-(2,6-Difluorophenyl)-2H-1,2,3-triazol-4-yl]-2-(trifluoromethyl)benzamide] | 2.80 | 100 | activity (efficiency by Abbott's formula, number of nematodes in corn roots) (Pratylenchus penetrans; application rate 2 ppm in soil): 90%; activity (efficiency by Abbott's formula, number of galls in tomato roots) (Meloidogyne incognita): 100%
N#Cc1nccnc1-n1ccc(NC(=O)c2ccccc2C(F)(F)F)n1 [Compound I-1-574, N-[1-(3-Cyanopyrazin-2-yl)-1H-pyrazol-3-yl]-2-(trifluoromethyl)benzamide] |  | 80 | activity (efficiency by Abbott's formula, number of nematodes in corn roots) (Pratylenchus penetrans; application rate 4 ppm in soil): 97%
O=C(Nc1ccn(-c2c(F)cccc2F)n1)c1ccccc1C(F)(F)F [Compound I-1-75, N-[1-(2,6-difluorophenyl)-1H-pyrazol-3-yl]-2-(trifluoromethyl)benzamide] |  | 100 | activity (efficiency by Abbott's formula, number of nematodes in corn roots) (Pratylenchus penetrans; application rate 2 ppm in soil): 88%; activity (efficiency by Abbott's formula, number of nematodes in corn roots) (Pratylenchus zeae): 89%; activity (efficiency by Abbott's formula, number of nematodes in banana roots) (Radopholus similis): 90%; activity (efficiency by Abbott's formula, number of galls in tomato roots) (Meloidogyne incognita): 100%; chromatographic logP (physchem; HPLC): 2.68

More lines, main results first:

log P (physchem; HPLC) | Compound | activity (efficiency by Abbott's formula, number of cysts in potato roots) (Globodera rostochiensis) [%] | also measured
1.46 | CC(=O)NC1=NN(c2c(F)cccc2F)CC1 [Ia-2, N-[1-(2,6-Difluorophenyl)-4,5-dihydro-1H-pyrazol-3-yl]acetamide] |  | 
0.81 | Nc1ccn(-c2ncc(F)cc2F)n1 [Ib-1, 1-(3,5-Difluoropyridin-2-yl)-1H-pyrazole-3-amine] |  | 
1.16 | Nc1cnn(-c2c(F)cccc2F)n1 [Ic-8, 2-(2,6-Difluorophenyl)-2H-1,2,3-triazole-4-amine] |  | 
1.33 | CC(=O)Nc1ccn(-c2c(F)cccc2F)n1 [Ia-3, N-[1-(2,6-Difluorophenyl)-1H-pyrazol-3-yl]acetamide] |  | 
1.13 | Nc1ccn(-c2c(F)cccc2F)n1 [Ia-4, 1-(2,6-Difluorophenyl)-1H-pyrazole-3-amine] |  | 

— patent publication US10258038B2, “Use of heterocyclic compounds for controlling nematodes” (BAYER CROPSCIENCE AKTIENGESELLSCHAFT, priority 2014, dated 2019)
